Values quoted from earlier work, collected in US20220401389A1, “TRANSMUCOSAL THERAPEUTIC SYSTEM CONTAINING AGOMELATINE” (LTS LOHMANN Therapie-Systeme AG, priority 2019, published 2022).

[1] = patients with moderate hepatic impairment compared to healthy subjects

oral absorption (oral): > 80% | overall bioavailability (oral): less than 5% | increase of AUC [1]: up to 140 fold | increase of cmax [1]: up to 140 fold
SMILES: COc1ccc2cccc(CCNC(C)=O)c2c1 [agomelatine, N-(2-(7-Methoxy-1-naphthyl)ethyl)acetamide]
